The term EC50 denotes the concentration that produces a half-maximal response.

Here are results for 22 compounds from patent publication US10844049B2, “GLP-1R agonists and uses thereof” (QILU REGOR THERAPEUTICS INC., priority 2018, dated 2020).

The target in assay [1] is T1, GLP1R (Homo sapiens, UniProt P43220). The assay is described as follows: GLP1R cAMP assay, CHO cells stably expressing human GLP-1R. In kind it is cell-based. On the procedure:
GLP-1R-mediated agonist activity was determined with a cell-based functional assay utilizing an HTRF (Homogeneous Time-Resolved Fluorescence) cAMP detection kit (cAMP Dynamic 2 Assay Kit; CisBio cat #62AM4PEC) that measures cAMP levels in the cell. The method is a competitive immunoassay between native cAMP produced by the cells and exogenous cAMP labeled with the dye d2. The tracer binding is visualized by a mAb anti-cAMP labeled with Cryptate. The specific signal (i.e., energy transfer) is inversely proportional to the concentration of cAMP in either standard or experimental sample.
Varying concentrations of each compound to be tested (in DMSO) were diluted in DMSO to obtain 200× compound working solution first and then 50 nl compounds were added to a white 384-well assay plate (Greiner 784075) with ECHO. The final DMSO concentration was 0.5%. The compound concentration range may be adjusted at any time.
Cells were removed from cryopreservation, re-suspended in 5 mL of Dulbecco's Phosphate Buffered Saline (DPBS-Sigma Cat # D8537) and centrifuged at 900 g for 5 min at 22° C. The cell pellet was then re-suspended in 1 mL of assay buffer [DPBS with 500 μM IBMX (Sigma #15879) and 0.1% BSA (Sigma # A1933). IBMX and BSA were freshly added on the day of assay]. A 10 μL sample of the cell suspension was counted on an Invitrogen Countess II to determine cell viability and cell count per mL. The remaining cell suspension was then adjusted with assay buffer to deliver 1000 viable cells per well using a Matrix Combi Multidrop reagent dispenser. 10 μL cell suspensions were added to each well of the assay plate which already contains compound. The plate was sealed and incubated at 37° C. with 5% CO2 for 30 minutes.
Following the 30 minute incubation, 5 μL of labeled d2 cAMP and 5 μL of anti-cAMP antibody (both diluted 1:20 in cell lysis buffer; as described in the manufacturer's assay protocol) were added to each well of the assay plate. The plates w ere then incubated at room temperature and after 60 minutes, changes in the HTRF signal were read with an Envision multi-label plate reader using excitation of 330 nm and emissions of 615 and 665 nm. Raw data were converted to nM cAMP by interpolation from a cAMP standard curve (as described in the manufacturer's assay protocol) and the percent effect was determined relative to a saturating concentration of the full agonist GLP-17-37 (10 nM) included on each plate. EC50 determinations were made from agonist dose-response curves analyzed with a curve fitting program using a 4-parameter logistic dose response equation. […]
For orientation: cAMP levels reflect the balance of adenylyl cyclase and phosphodiesterase activity.

Assay [2] addresses T1, GLP1R. The assay is described as follows: GLP1R cAMP HTRF assay, HEK293/GLP-1R/CRE/Luc (HEK293T cells). In kind it is cell-based. An outline of the steps: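 cAMP accumulation via HTRF after 30 min, 37 °C exposure of 1000 receptor-expressing cells/well to compound (0.5% DMSO final) in IBMX (500 μM)/0.1% BSA DPBS.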
A general note: Time-resolved FRET reads energy transfer from a long-lived donor to a nearby acceptor.

The mark [3] stands for this setting: CHO cells stably expressing GLP-1R, read-out: CHO cAMP stable EC50.
The mark [4] stands for this setting: CHO cells, mean ± spread, read-out: CHO cells EC50.
Where [5] appears, read: mean ± spread, read-out: HEK293T cells EC50.

T1 sequence (P43220 24-463): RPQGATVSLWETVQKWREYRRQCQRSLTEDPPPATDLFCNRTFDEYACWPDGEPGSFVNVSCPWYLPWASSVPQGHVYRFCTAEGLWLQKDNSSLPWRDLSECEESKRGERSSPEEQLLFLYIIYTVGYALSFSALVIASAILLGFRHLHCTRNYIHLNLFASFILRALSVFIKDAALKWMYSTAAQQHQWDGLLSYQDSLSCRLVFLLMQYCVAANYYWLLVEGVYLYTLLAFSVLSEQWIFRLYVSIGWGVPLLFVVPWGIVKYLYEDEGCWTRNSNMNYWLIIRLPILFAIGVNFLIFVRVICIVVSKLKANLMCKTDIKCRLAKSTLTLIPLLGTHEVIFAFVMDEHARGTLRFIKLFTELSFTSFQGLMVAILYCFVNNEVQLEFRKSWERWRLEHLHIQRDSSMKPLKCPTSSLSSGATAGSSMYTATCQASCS

In the case of `N#Cc1ccc(COc2cccc(N3CCC(Cc4nc5ccc(C(=O)O)nc5n4C[C@@H]4CCO4)CC3)n2)c(F)c1` [Compound 227, (S)-2-((l-(6-((4-cyano-2-fluorobenzyl)oxy)pyridin-2-yl)piperidin-4-yl)methyl)-3-(oxetan-2-ylmethyl)-3H-imidazo[4,5-b]pyridine-5-carboxylic acid], the EC50 on GLP1R [1] (setting [3]) is at most 150 nM; on GLP1R [2] (read-out: EC50) it was at most 15 nM. Turning to `N#Cc1ccc(COc2cccc(N3CCC(Cc4nc5ccc(C(=O)O)c(F)c5n4C[C@@H]4CCO4)CC3)n2)c(F)c1` [Compound 228, (S)-2-((l-(6-((4-cyano-2-fluorobenzyl)oxy)pyridin-2-yl)piperidin-4-yl)methyl)-7-fluoro-1-(oxetan-2-ylmethyl)-1H-benzo[d]imidazole-6-carboxylic acid], the EC50 at GLP1R [1] (setting [3]) is at most 150 nM; on GLP1R [2] (read-out: EC50), at most 15 nM. As for `Cn1cnc2ccc(COc3cccc(C4=CCN(Cc5nc6ccc(C(=O)O)cc6n5C[C@@H]5CCO5)CC4)n3)cc21` [Compound 241, (S)-2-((6-((1-methyl-1H-benzo[d]imidazol-6-yl)methoxy)-3′,6′-dihydro-[2,4′-bipyridin]-(2′H)-yl)methyl)-1-(oxetan-2-ylmethyl)-1H-benzo[d]imidazole-6-carboxylic add], the 50% effective concentration (EC50) at GLP1R [2] (read-out: EC50) was at most 150 nM.

As to `O=C(O)c1ccc2nc(CN3CC=C(c4cccc(OCc5ccc(-n6nccn6)cc5)n4)CC3)n(C[C@@H]3CCO3)c2c1` [Compound 243, (S)-2-((6-((4-(2H-1,2,3-triazol-2-yl)benzyl)oxy)-3′,6′-dihydro-[2,4′-bipyridin]-1′(2′H)-yl)methyl)-1-(oxetan-2-ylmethyl)-1H-benzo[d]imidazole-6-carboxylic add], on GLP1R [2] (read-out: EC50), the EC50 was at most 150 nM. The same measure, in the same setting: the value for `O=C(O)c1ccc2nc(CN3CC=C(c4cccc(OCc5ccc(-n6ccnn6)cc5)n4)CC3)n(C[C@@H]3CCO3)c2c1` [Compound 244, (S)-2-((6-((4-(1H-1,2,3-triazol-1-yl)benzyl)oxy)-3′,6′-dihydro-[2,4′-bipyridin]-1′(2′H)-yl)methyl)-1-(oxetan-2-ylmethyl)-1H-benzo[d]imidazole-6-carboxylic add] was at most 15 nM. Take `N#Cc1ccc(COc2cccc(C3=CCN(Cc4nc5ccc(C(=O)O)cc5n4C[C@@H]4CCO4)CC3)n2)c(F)c1` [drawing 55]: the EC50 was 2.25 nM at GLP1R [1] (setting [4]) and 0.219 nM on GLP1R [2] (setting [5]). Take `N#Cc1ccc(COc2nc(C3=CCN(Cc4nc5ccc(C(=O)O)cc5n4C[C@@H]4CCO4)CC3)ccc2F)c(F)c1` [drawing 57]: the values for the half-maximal effective concentration (EC50) at GLP1R [1] (setting [4]) and at GLP1R [2] (setting [5]) were 6.05 nM and 0.517 nM, respectively. As to `O=C(O)c1ccc2nc(CN3CCC(c4ccnc(OCc5ccc(Cl)cc5F)n4)CC3)n(C[C@@H]3CCO3)c2c1` [drawing 58, reference compound], the figures for the EC50 at GLP1R [1] (setting [4]) and on GLP1R [2] (setting [5]) were 95.8 nM and 1.98 nM, respectively.

For `O=C(O)c1ccc2nc(CN3CC=C(c4ccnc(OCc5ccc(Cl)cc5F)n4)CC3)n(C[C@@H]3CCO3)c2c1` [drawing 59], the EC50 at GLP1R [1] (setting [4]) is 73.7 nM; at GLP1R [2] (setting [5]), 1.8 nM.

`O=C(O)c1ccc2nc(CN3CCC(c4cncc(OCc5ccc(Cl)cc5F)n4)CC3)n(C[C@@H]3CCO3)c2c1` [drawing 60, reference compound]: the figures for the 50% effective concentration (EC50) on GLP1R [1] (setting [4]) and on GLP1R [2] (setting [5]) were 289 ± 53 nM and 10.5 nM, respectively. Taken in the same sequence, the figures for `O=C(O)c1ccc2nc(CN3CC=C(c4cncc(OCc5ccc(Cl)cc5F)n4)CC3)n(C[C@@H]3CCO3)c2c1` [drawing 61] were 136 ± 32.6 nM and 2.94 nM.

For `N#Cc1ccc(COc2cncc(C3CCN(Cc4nc5ccc(C(=O)O)cc5n4C[C@@H]4CCO4)CC3)n2)c(F)c1` [drawing 62, reference compound], the EC50 on GLP1R [1] (setting [4]) was found to be 924 ± 230 nM; on GLP1R [2] (setting [5]), 15.9 nM. In the same order, the values of `N#Cc1ccc(COc2cncc(C3=CCN(Cc4nc5ccc(C(=O)O)cc5n4C[C@@H]4CCO4)CC3)n2)c(F)c1` [drawing 63] are 260 ± 38 nM and 9.85 nM. With `O=C(O)c1ccc2nc(CN3CC=C(c4cccc(OCc5ccc(Cl)cc5F)n4)CC3)n(C[C@@H]3CCO3)c2c1` [drawing 65], the results for the EC50 at GLP1R [1] (setting [4]) and at GLP1R [2] (setting [5]) were 3.28 nM and 0.393 nM, respectively. Taken in the same sequence, the figures for `O=C(O)c1ccc2nc(CN3CCC(c4cccc(OCc5ccc(Cl)cc5F)c4)CC3)n(C[C@@H]3CCO3)c2c1` [drawing 66, reference compound] were 105 ± 32.7 nM and 8.58 nM. On to `O=C(O)c1ccc2nc(CN3CC=C(c4cccc(OCc5ccc(Cl)cc5F)c4)CC3)n(C[C@@H]3CCO3)c2c1` [drawing 67], for which the EC50 on GLP1R [1] (setting [4]) stood at 42.6 ± 11.5 nM; at GLP1R [2] (setting [5]), 3.94 nM.

As to `N#Cc1ccc(COc2cccc(C3=CCN(Cc4nc5ccc(C(=O)O)nc5n4C[C@@H]4CCO4)CC3)n2)c(F)c1` [drawing 69], the EC50 was determined as 3.86 nM at GLP1R [1] (setting [4]) and 0.168 nM on GLP1R [2] (setting [5]). Taken in the same sequence, the figures for `N#Cc1ccc(COc2nc(C3CCN(Cc4nc5ccc(C(=O)O)cc5n4C[C@@H]4CCO4)CC3)ccc2F)c(F)c1` [reference compound] were 463 nM and 5.65 nM.

As for `O=C(O)c1ccc2nc(CN3CCC(c4cccc(OCc5ccc(Cl)cc5F)n4)CC3)n(C[C@@H]3CCO3)c2c1` [reference compound], the EC50 at GLP1R [1] (setting [4]) was determined as 7.65 nM; on GLP1R [2] (setting [5]), 0.412 nM.

With `N#Cc1ccc(COc2cccc(C3CCN(Cc4nc5ccc(C(=O)O)nc5n4C[C@@H]4CCO4)CC3)n2)c(F)c1` [reference compound], the concentration for a half-maximal effect (EC50) amounted to 3.5 nM at GLP1R [1] (setting [4]) and 0.3 nM at GLP1R [2] (setting [5]).

On to “(S)-2-((4-(2-((4-(cyclopropylethynyl)-2-fluorobenzyl)oxy)pyrimidin-4-yl)piperazin-1-yl)methyl)-1-(oxetan-2-ylmethyl)-1H-benzo[d]imidazole-6-carboxylic add [Compound 194]”, for which the EC50 on GLP1R [2] (read-out: EC50) is at most 150 nM. Turning to “(S)-2-((4-(3-((4-cyano-2-fluorobenzyl)oxy)-5-fluorophenyl)-5,6-dihydropyridin-1(2H)-yl)methyl)-1-(oxetan-2-ylmethyl)-1H-benzo[d]imidazole-6-carboxylic add [Compound 218]”, the EC50 on GLP1R [2] (read-out: EC50) was at most 150 nM.
